From paper PMC10442743 (Dalton Transactions (Cambridge, England : 2003), 2023)
Where two headings read alike, the source gives them in different places.

Tests used:
[1] = system: 6-mer dsDNA 5′–3′ (AGGCAG); conditions: 3 : 1 ratio, 37 °C, 24 h
Experimental: (§1) Tandem mass spectrometry was used to investigate the binding mode interaction of 11Cl with single- (ss) and double-strand (ds) DNA oligomers.[77,78]
(§2) 11Cl was incubated with 14-mer ssDNA 5′–3′ ([…]) and 6-mer dsDNA 5′–3′ (AGGCAG) in a 3 : 1 ratio at 37 °C in MilliQ water. After 24 h the solution was centrifuged with an Amicon® Ultra 0.5 mL centrifugal filter 3 kDa MWCO to remove the unreacted metal complex and excess salts.

[2] = system: 14-mer ssDNA 5′–3′ (ATACATGGTACATA); conditions: 3 : 1 ratio, 37 °C, 24 h
Experimental: as §1, §2

[3] = system: pBR322 DNA
Experimental: The interaction of 11Cl with plasmid DNA was also assessed by visualizing the relaxation of the plasmid using agarose gel electrophoresis (Fig. 4). Different concentrations of the 11Cl were incubated with pBR322 DNA at 37 °C for 24 h and then analyzed by gel electrophoresis (Fig. 4).
Assays were performed using 1.2% (w/v) agarose gels. A plasmid pBR322 DNA was purchased from Thermofisher Scientific® at 0.5 μg μL^−1 concentration in phosphate buffer 50 mM (pH 7.4). A 20 μL portion containing 0.125 μg μL^−1 of DNA in 10 mM Tris-HCl (pH 7.6) and 1 mM EDTA was incubated with increasing volumes of the stock solution of 11Cl (1 mM in DMSO) at ri values ranging from 0.05 to 0.5 (ri = [complex]/[no. nucleotide]). […] 20 μL of the sample was loaded in the agarose gel (1.2% w/v), and electrophoresis was carried out for a period of 100 min at 40 V in TAE 1× (Tris-acetate/EDTA) buffer. After electrophoresis, the gel was immersed in 200 mL of TAE 1× buffer containing 20 μL of a stock solution of SYBR safe for 30 min to stain the DNA. Then, the gel was washed with Mili Q water for 10 min and the stained gel was analyzed with a blue light in a Safe Imager™ 2.0 (Invitrogen).

[4] = system: MDA-MB-231; assay: MTT cytotoxicity assay, MDA-MB-231 cells; type: cell-based, human; conditions: MTT
Experimental: (§3) The cytotoxicity of 1–11CA was assessed against human breast cancer MCF-7 and MDA-MB-231 cells, and non-tumorigenic adherent mouse fibroblast connective tissue L929 cells using the MTT assay after 24 and 72 h (Tables S5 ^† and Table 1, respectively).
(§4) Then, necessary dilutions were made using the supplement DMEM, to prepare the range of tested concentrations. Since DMSO was used to solubilize the compounds, a supplemented DMEM + DMSO (at the same percentage as in the sequential dilutions) was considered as a control in the 3-[4,5-dimetylthiazole-2-yl]-2,5-diphenyltetrazolium bromide (MTT) assay.
(§5) L929, MCF-7, and MDA-MB-231 cell lines were cultured in DMEM supplemented with 10% (v/v) FBS and 1% (v/v) of penicillin–streptomycin. The cells were incubated in a humidified chamber at 37 °C under saturated air with a 5% CO2 atmosphere. Cells were passed at 80%–90% of confluency with 0.25% (w/v) trypsin and the cell culture media was changed every 2–3 days.
(§6) The compounds were tested on two breast cancer cell lines (MCF-7 and MDA-MB-231) and L929 fibroblasts, used as a reference for the safety evaluation according to ISO 10993-1:2009 “Biological evaluation of medical devices”. Cells were seeded on sterile 96-well plates at 50 000 cells per well (L929) and 20 000 cells per well (MCF-7 and MDA-MB-231) in supplemented DMEM medium (100 μL) for 24 h. The culture medium was removed and new media containing different concentrations of the compounds (0–1000 μM) was added to the wells (100 μL). Control cells were incubated under the same conditions in the absence of a compound. Cells were incubated for 24 and 72 h under the same conditions described above. Then, the medium was removed, and the cells were incubated with 3-(4,5-dimethylthiazol-2-yl)-2,5-diphenyltetrazolium bromide (MTT; 0.5 mg mL^−1) for 3 h. After this time, the medium was removed, and formazan crystals were solubilized with DMSO (100 μL per well). The absorbance in each well was read on a SynergyTM HT Multimode microplate reader (BioTek Instruments; Winooski, VT, USA) at 570 and 630 nm (for background correction), and the cell viability was calculated according to the following equation (eqn (1)):1 [drawing 3] where OD570(sample) and OD630(sample) are the optical densities of the solutions containing the compounds and OD570(control) and OD630(control) are controls without compound.
(§7) Each apoptosis value determination represents the mean ± standard deviation of 2 independent assays. The IC50 values were obtained using GraphPad Prism software and ANOVA (analysis of variance) was performed to determine the statistical difference between the IC50 values of different cell lines.

[5] = Stability in solution (ESI-MS, NMR); conditions: 1 mM
Experimental: The stability of 11CA under pseudo-physiological conditions was assessed using ESI-MS and ^1H and ^31P NMR spectroscopy.
Stability studies were performed on 11CA over 72 h at 37 °C.
The stability of 11Cl was also monitored over
72 h via 1H and 31P NMR spectroscopy. The complex was fully dissolved in d6-DMSO,
diluted with D2O to reach 10% d6-DMSO in D2O (1 mM final concentration) and, finally,
the pD was adjusted to 7.2 ± 0.1 (neutral conditions). Furthermore, the stability of 11Cl
and 11BPh4 was also assessed in 100% d6-DMSO (1 mM final concentration) as a highly

[6] = Molar conductivity in acetonitrile; type: physicochemical; conditions: 1 mM in acetonitrile, 25 °C
Experimental: The molar conductivity (ΛM, reported as S·cm2·mol–1) of solutions of 11CA in acetonitrile (1 mM) were measured in a Radiometer Copenhagen CDM92 equipped with a conductivity cell CDC641T glass platinum electrode at room temperature (25 °C). The conductivity of the pure solvent was used as standard controls.
Table S3. Solubility in water at 25 °C, n-octanol/water partition coefficient and molar conductivity of the 11CA. * below limit of detection = 5 ppt.

[7] = system: ctDNA; assay: Circular dichroism / induced circular dichroism with calf thymus DNA
Experimental: Calf thymus (ct) DNA (Merck®) was used to perform the circular dichroism assay to detect conformational changes in the ctDNA induced by the compounds. CD spectral data was collected on a Chirascan™ V100 (Applied Photophysics) spectropolarimeter equipped with a large area Avalanche photodiodes detector and computer-controlled thermoelectrical cell holder using a 1 cm path length quartz cuvette. CD spectra of ctDNA in the absence and presence of different concentrations of 11Cl were recorded at wavelengths ranging from 320 to 190 nm under constant nitrogen flush at 25 °C. For each CD spectrum, the number of scans was set to 5, and spectral data were collected at 0.1 ms intervals. Additionally, methyl green (MG) and 4′,6-diamidino-2-phenylindole (DAPI), and propidium iodide (PI) were analyzed as minor and major groove binders and as an intercalator, respectively, to help identify the binding mode of 11Cl to DNA. Samples were prepared in 10 mM Tris-HCl buffer (pH 7.6) with 1 mM EDTA. The concentration of ctDNA was fixed at 100 μM (concerning base pairs) and the ctDNA to 11Cl ratio was varied between 0 and 1. The samples were incubated for 24 h at 37 °C and then analyzed in the CD spectropolarimeter.

[8] = system: L929; assay: MTT cytotoxicity assay, L929 fibroblasts (and selectivity index); type: cell-based, mouse; conditions: for SI (selectivity index): IC50 L929 divided by average IC50 of the breast cancer cell lines; for IC50: MTT
Experimental: as §3, §4, §5, §6, §7

SMILES: Cc1ccccc1.[Cl-].[Cl][Ru+]([PH](c1ccccc1)(c1ccccc1)c1ccccc1)[PH](c1ccccc1)(c1ccccc1)c1ccccc1 [Compound 11Cl, [Ru(η^6-toluene)(PPh3)2Cl]Cl]
- identified dsDNA ions containing ruthenium [1]: 23%
- identified ssDNA ions containing ruthenium [2]: 43%
- stabilization of the linear form of plasmid DNA ([3]; 37 °C, 24 h, ri 0.01–0.5): did not induce the stabilization of the linear form
- precipitation of DNA ([3]; all studied concentrations): no precipitation was observed
- ri ratio from which alterations in the supercoiled structure (tailing, slight retardation) appear ([3]; ri = [11Cl]/[DNA bp], 37 °C, 24 h): ≥ 0.2
- IC50 ([4]; 24 h exposure, read-out: IC50 (µM) (average ± standard deviation) 24 h MDA-MB-231): 5.5 ± 0.6 µM
- IC50 ([4]; 72 h exposure, read-out: IC50 (μM) (average ± standard deviation) 72 h MDA-MB-231): 0.086 ± 0.006 µM
- stability by NMR spectroscopy in neutral conditions ([5]; 10% d6-DMSO in D2O, pD 7.2, 72 h): No signs of hydrolysis or decomposition were observed
- stability in DMSO (NMR) ([5]; 100% d6-DMSO, 72 h): No changes were observed
- Conductivity (molar conductivity) [6]: 128 S·cm2/mol
- CD band 210 nm, intensity change ([7]; DNA, 24 h, 37 °C): decrease in the ellipticity
- CD band 210 nm, wavelength shift ([7]; DNA, 24 h, 37 °C): remained unchanged
- CD band 220 nm (hydrogen bonding), intensity change ([7]; DNA, 24 h, 37 °C): increase in the circularity
- CD band 220 nm (hydrogen bonding), wavelength shift ([7]; DNA, 24 h, 37 °C): small bathochromic (red) shift
- CD band 246 nm (helicity), intensity change ([7]; DNA, 24 h, 37 °C): decrease in the ellipticity
- CD band 246 nm (helicity), wavelength shift ([7]; DNA, 24 h, 37 °C): remained unchanged
- CD band 268−280 nm (base-pair stacking interactions), intensity change ([7]; DNA, 24 h, 37 °C): decrease in the ellipticity
- CD band 268−280 nm (base-pair stacking interactions), wavelength shift ([7]; DNA, 24 h, 37 °C): remained unchanged
- decrease of the intensity of the ICD bands of DAPI ([7]; DNA–DAPI after treatment with 11Cl): 35%
- decrease of the intensity of the ICD bands of MG ([7]; DNA–MG after treatment with 11Cl): 20%
- selectivity for the breast cancer cell lines compared to the healthy ones [8]: ~10 fold
- SI (selectivity index) ([8]; 24 h): 1.1
- IC50 ([8]; 24 h exposure, read-out: IC50 (µM) (average ± standard deviation) 24 h L929): 5.3 ± 0.7 µM
- SI (selectivity index) ([8]; 72 h): 11.8
- IC50 ([8]; 72 h exposure, read-out: IC50 (μM) (average ± standard deviation) 72 h L929): 0.87 ± 0.05 µM
